Data from ChEMBL document CHEMBL1649266, “Emergence of an Enterobacter hormaechei strain with reduced susceptibility to tigecycline under tigecycline therapy” (2009).
In brackets after ≈: the same amount, converted by molar mass.

What was measured:
Format in all cases: functional
[1] = test system: Enterobacter hormaechei; test: Antibacterial activity against Enterobacter hormaechei isolate UCN63 after 3 weeks of treatment
[2] = test system: Enterobacter hormaechei; test: Antibacterial activity against Enterobacter hormaechei isolate UCN62
[3] = test system: Enterobacter cloacae; test: Antibacterial activity against Enterobacter cloacae UCN62 by Etest
[4] = test system: Enterobacter cloacae; test: Antibacterial activity against Enterobacter cloacae UCN63 by broth microdilution method after 3 weeks of treatment; settings: UCN63, 504 h
[5] = test system: Enterobacter cloacae; test: Antibacterial activity against Enterobacter cloacae UCN63 by Etest after 3 weeks of treatment; settings: UCN63, 504 h
[6] = test system: Enterobacter cloacae; test: Antibacterial activity against Enterobacter cloacae UCN62 by broth microdilution method

Compound	MIC [1]	MIC [2]	MIC ([1]; isolate UCN63, 504 h)	MIC [3]	MIC [4]	MIC [5]	MIC [6]
GENTAMICIN	> 32 µg/mL	> 32 µg/mL					
O=C(O)c1cn(C2CC2)c2cc(N3CCNCC3)c(F)cc2c1=O [CIPROFLOXACIN]		> 16 µg/mL	> 16 µg/mL				
CO/N=C(\C(=O)N[C@@H]1C(=O)N2C(C(=O)O)=C(COC(C)=O)CS[C@H]12)c1csc(N)n1 [CEFOTAXIME]		> 64 µg/mL	> 64 µg/mL				
CN(C)c1cc(NC(=O)CNC(C)(C)C)c(O)c2c1C[C@H]1C[C@H]3[C@H](N(C)C)C(O)=C(C(N)=O)C(=O)[C@@]3(O)C(O)=C1C2=O [TIGECYCLINE]		2 µg/mL (≈ 3.41 µM)	4 µg/mL (≈ 6.83 µM)	1 µg/mL (≈ 1.71 µM)	4 µg/mL (≈ 6.83 µM)	3 µg/mL (≈ 5.12 µM)	2 µg/mL (≈ 3.41 µM)
NCC[C@H](O)C(=O)N[C@@H]1C[C@H](N)[C@@H](O[C@H]2O[C@H](CN)[C@@H](O)[C@H](O)[C@H]2O)[C@H](O)[C@H]1O[C@H]1O[C@H](CO)[C@@H](O)[C@H](N)[C@H]1O [AMIKACIN]		4 µg/mL (≈ 6.83 µM)	8 µg/mL (≈ 13.7 µM)				
C[C@@H](O)[C@H]1C(=O)N2C(C(=O)O)=C(SCCNC=N)C[C@H]12 [IMIPENEM ANHYDROUS]		1 µg/mL (≈ 3.34 µM)	1 µg/mL (≈ 3.34 µM)				
